# Results published in patent US12180207B2 (ARRAY BIOPHARMA INC., priority 2018, dated 2024).
# Experiments:
# [1] = target: FGFR1 (SEQ ID NO: 1, amino acids 458-765) (Homo sapiens (Human), UniProt P11362); assay: LC/MS FGFR1 kobs assay (covalent protein modification); type: binding; conditions: 500 nM FGFR1, 3 μM compound
# Summary of the method: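 Covalent labeling of FGFR1 kinase domain (aa 458-765) tracked over time by intact-protein LC/MS after formic acid quench. kobs derived by fitting DMSO-normalized percent unmodified FGFR1 to an exponential decay model.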
# [2] = target: dephosphorylated FGFR1 (SEQ ID NO: 1, amino acids 458 to 765) (Homo sapiens (Human), UniProt P11362); assay: FGFR enzyme binding assay (HTRF tracer displacement), FGFR1; conditions: 5 nM dephosphorylated FGFR1, average of multiple determinations if made
# Summary of the method: (§1)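 Kinase and tracer were incubated with compound for 60 minutes at 22° C. Tracer displacement was then measured by HTRF, and results were expressed as POC with 1 μM control inhibitor defining full displacement.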
# [3] = target: HEK-293 cells transfected with dox-inducible human wild type FGFR3 (Homo sapiens (Human), UniProt P22607); assay: FGFR3 pERK cell assay; type: cell-based; conditions: HEK-293 dox-inducible FGFR3, 1 hour compound, 100 ng/ml FGF-acidic; maximum concentration 5 μM
# Summary of the method: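 Doxycycline-induced cells preincubated 1 h at 37 °C with compound (1:3 dilutions, top 5 μM final), then stimulated 5 min with 100 ng/ml FGF-acidic. Lysate phospho-ERK1/2 measured by MSD sandwich assay; IC50 at 50 POC from 4-parameter fit, normalised to no-compound and control-compound wells.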
# [4] = target: FGFR3 (SEQ ID NO: 5, amino acids 449-759) (Homo sapiens (Human), UniProt P22607); assay: LC/MS FGFR3 kobs assay (covalent protein modification); type: binding; conditions: 500 nM FGFR3, 3 μM compound
# Summary of the method: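 kobs is the rate constant from an exponential-decay fit of percent unmodified kinase, normalized to DMSO controls, averaged over multiple determinations where available. Time-course samples of FGFR1 (458-765) and FGFR3 (449-759) with compound were acid-quenched (0.4% formic acid) and protein adducts quantified by intact-mass LC/MS.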
# [5] = target: HEK-293 cells transfected with dox-inducible human wild type FGFR1 (Homo sapiens (Human), UniProt P11362); assay: FGFR1 pERK cell assay; type: cell-based; conditions: HEK-293 dox-inducible FGFR1, 1 hour compound, 100 ng/ml FGF-acidic; maximum concentration 5 μM
# Summary of the method: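 In HEK-293 cells with dox-induced human wild-type FGFR1, compounds (1:3 dilutions, top 5 μM final) were applied 1 h at 37°C before 5 min stimulation with 100 ng/ml FGF-acidic. Phospho-ERK1/2 measured by MSD sandwich immunoassay; IC50 from 4-parameter fit of POC versus vehicle and control compound.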
# [6] = target: phosphorylated FGFR3 (SEQ ID NO: 5, amino acids 449 to 759) (Homo sapiens (Human), UniProt P22607); assay: FGFR enzyme binding assay (HTRF tracer displacement), FGFR3; conditions: 5 nM phosphorylated FGFR3, average of multiple determinations if made
# Summary of the method: as §1
# Chain of HEK-293 cells transfected with dox-inducible human wild type FGFR1 (P11362 22-822): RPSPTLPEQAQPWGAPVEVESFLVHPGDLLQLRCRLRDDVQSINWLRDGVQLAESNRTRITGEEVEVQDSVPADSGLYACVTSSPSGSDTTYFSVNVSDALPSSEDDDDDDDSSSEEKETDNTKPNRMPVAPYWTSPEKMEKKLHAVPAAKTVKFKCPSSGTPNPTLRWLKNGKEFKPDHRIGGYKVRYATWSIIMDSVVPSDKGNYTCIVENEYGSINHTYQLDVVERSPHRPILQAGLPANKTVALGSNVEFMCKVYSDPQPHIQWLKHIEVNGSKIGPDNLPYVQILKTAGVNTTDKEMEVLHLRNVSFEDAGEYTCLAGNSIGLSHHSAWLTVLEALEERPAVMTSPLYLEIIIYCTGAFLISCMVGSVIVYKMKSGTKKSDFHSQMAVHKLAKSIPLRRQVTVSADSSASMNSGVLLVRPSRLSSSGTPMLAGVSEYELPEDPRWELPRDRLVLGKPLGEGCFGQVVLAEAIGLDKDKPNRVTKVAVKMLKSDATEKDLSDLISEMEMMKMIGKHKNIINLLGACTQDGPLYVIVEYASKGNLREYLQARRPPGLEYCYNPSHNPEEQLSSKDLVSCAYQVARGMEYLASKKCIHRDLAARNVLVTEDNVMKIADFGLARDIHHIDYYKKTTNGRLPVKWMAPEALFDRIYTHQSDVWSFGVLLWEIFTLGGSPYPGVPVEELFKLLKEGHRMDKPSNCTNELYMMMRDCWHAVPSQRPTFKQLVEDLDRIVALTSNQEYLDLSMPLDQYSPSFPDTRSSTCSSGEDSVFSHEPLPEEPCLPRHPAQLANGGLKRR
# Chain of FGFR1 (SEQ ID NO: 1, amino acids 458-765) (P11362 458-765): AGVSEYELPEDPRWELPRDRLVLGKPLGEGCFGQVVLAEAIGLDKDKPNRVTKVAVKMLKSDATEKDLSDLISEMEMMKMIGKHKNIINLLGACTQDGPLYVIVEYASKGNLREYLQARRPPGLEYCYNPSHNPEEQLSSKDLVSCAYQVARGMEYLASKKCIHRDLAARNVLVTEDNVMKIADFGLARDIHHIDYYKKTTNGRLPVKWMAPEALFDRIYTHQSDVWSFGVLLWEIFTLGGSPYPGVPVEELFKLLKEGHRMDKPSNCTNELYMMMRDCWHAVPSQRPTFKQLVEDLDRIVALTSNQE
# Chain of dephosphorylated FGFR1 (SEQ ID NO: 1, amino acids 458 to 765) (P11362 458-765): as above
# Chain of HEK-293 cells transfected with dox-inducible human wild type FGFR3 (P22607 23-806): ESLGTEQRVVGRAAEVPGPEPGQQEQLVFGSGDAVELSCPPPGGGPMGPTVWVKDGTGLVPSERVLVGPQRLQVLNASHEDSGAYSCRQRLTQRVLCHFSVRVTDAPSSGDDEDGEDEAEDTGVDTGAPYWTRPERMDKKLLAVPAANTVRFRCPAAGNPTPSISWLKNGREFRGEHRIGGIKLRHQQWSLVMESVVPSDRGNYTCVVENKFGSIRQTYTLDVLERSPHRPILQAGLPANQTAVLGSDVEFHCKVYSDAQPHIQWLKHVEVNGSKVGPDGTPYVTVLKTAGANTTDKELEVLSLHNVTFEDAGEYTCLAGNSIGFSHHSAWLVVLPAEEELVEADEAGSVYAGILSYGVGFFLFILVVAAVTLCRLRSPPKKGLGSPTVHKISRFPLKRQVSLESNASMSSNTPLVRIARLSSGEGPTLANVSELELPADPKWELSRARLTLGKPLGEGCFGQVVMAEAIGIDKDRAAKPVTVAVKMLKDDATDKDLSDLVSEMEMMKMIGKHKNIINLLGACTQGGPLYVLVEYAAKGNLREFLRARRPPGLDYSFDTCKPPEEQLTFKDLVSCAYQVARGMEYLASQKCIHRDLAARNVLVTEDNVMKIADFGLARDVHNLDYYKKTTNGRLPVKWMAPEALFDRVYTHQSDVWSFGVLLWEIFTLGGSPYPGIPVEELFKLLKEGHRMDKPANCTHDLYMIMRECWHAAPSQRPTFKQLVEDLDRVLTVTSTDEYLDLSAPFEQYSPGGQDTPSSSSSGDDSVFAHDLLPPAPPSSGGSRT
# Chain of phosphorylated FGFR3 (SEQ ID NO: 5, amino acids 449 to 759) (P22607 449-759): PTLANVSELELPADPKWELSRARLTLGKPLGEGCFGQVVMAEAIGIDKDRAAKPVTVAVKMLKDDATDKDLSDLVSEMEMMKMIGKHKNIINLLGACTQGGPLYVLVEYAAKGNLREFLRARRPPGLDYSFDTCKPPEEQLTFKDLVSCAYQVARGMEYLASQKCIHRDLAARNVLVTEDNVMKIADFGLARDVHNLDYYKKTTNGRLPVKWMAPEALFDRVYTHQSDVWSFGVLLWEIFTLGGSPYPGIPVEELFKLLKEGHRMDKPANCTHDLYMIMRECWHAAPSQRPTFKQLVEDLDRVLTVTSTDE
# Chain of FGFR3 (SEQ ID NO: 5, amino acids 449-759) (P22607 449-759): as above
SMILES,FGFR1 Enz kobs [1] [min⁻¹],IC50 [2] [nM],IC50 [3] [nM],FGFR3 Enz kobs [4] [min⁻¹],IC50 [5] [nM],IC50 [6] [nM]
"COc1cc(-c2c(C)nn(C3CCN(C(=O)C4(F)CN(C(=O)/C=C/CN(C)C)C4)CC3)c2C)cn2ncc(C#N)c12 [Example 161, (E)-6-(1-(1-(1-(4-(dimethylamino)but-2-enoyl)-3-fluoroazetidine-3-carbonyl)piperidin-4-yl)-3,5-dimethyl-1H-pyrazol-4-yl)-4-methoxypyrazolo [1,5-a]pyridine-3-carbonitrile]",0.00744,589,133,0.1129,1620,5
"CCc1c(-c2cc(OC)c3c(C#N)cnn3c2)cnn1C1CCN(C(=O)C2(F)CN(C(=O)/C=C/CN(C)C)C2)CC1 [Example 162, (E)-6-(1-(1-(1-(4-(dimethylamino)but-2-enoyl)-3-fluoroazetidine-3-carbonyl)piperidin-4-yl)-5-ethyl-1H-pyrazol-4-yl)-4-methoxypyrazolo [1,5-a]pyridine-3-carbonitrile]",0.00455,1720,357,0.07862,1440,48
"COc1cc(-c2nn(C3CCN(C(=O)C4(F)CN(C(=O)/C=C/CN(C)C)C4)CC3)nc2C)cn2ncc(C#N)c12 [Example 163, (E)-6-(2-(1-(1-(4-(dimethylamino)but-2-enoyl)-3-fluoroazetidine-3-carbonyl)piperidin-4-yl)-5-methyl-2H-1,2,3-triazol-4-yl)-4-methoxypyrazolo [1,5-a]pyridine-3-carbonitrile]",0.00486,1140,207,0.03573,1650,34
"COc1cc(-c2nnn(C3CCN(C(=O)C4(F)CN(C(=O)/C=C/CN(C)C)C4)CC3)c2C)cn2ncc(C#N)c12 [Example 164, (E)-6-(1-(1-(1-(4-(dimethylamino)but-2-enoyl)-3-fluoroazetidine-3-carbonyl)piperidin-4-yl)-5-methyl-1H-1,2,3-triazol-4-yl)-4-methoxypyrazolo [1,5-a]pyridine-3-carbonitrile]",0.00713,350,188,0.1705,≥ 5000,3
"COc1cc(-c2ccc(N3CCN(C(=O)C4(F)CN(C(=O)/C=C/CN(C)C)C4)CC3)nc2C)cn2ncc(C#N)c12 [Example 168, (E)-6-(6-(4-(1-(4-(dimethylamino)but-2-enoyl)-3-fluoroazetidine-3-carbonyl)piperazin-1-yl)-2-methylpyridin-3-yl)-4-methoxypyrazolo [1,5-a]pyridine-3-carbonitrile]",0.00847,608,99,0.06456,502,34
"COc1cc(-c2cnc(N3CCN(C(=O)C4(F)CN(C(=O)/C=C/CN(C)C)C4)CC3)cc2C)cn2ncc(C#N)c12 [Example 169, (E)-6-(6-(4-(1-(4-(dimethylamino)but-2-enoyl)-3-fluoroazetidine-3-carbonyl)piperazin-1-yl) -4-methylpyridin-3-yl)-4-methoxypyrazolo [1,5-a]pyridine-3-carbonitrile]",0.00576,788,175,0.08,751,49

# More lines, now with the values ahead:
FGFR1 Enz kobs [1] [min⁻¹],IC50 [2] [nM],IC50 [3] [nM],FGFR3 Enz kobs [4] [min⁻¹],IC50 [5] [nM],IC50 [6] [nM],SMILES
0.00774,488,55,0.1388,915,5,"COc1cc(-c2cnn(C3CCN(C(=O)C4(F)CN(C(=O)/C=C/CN(C)C)C4)CC3)c2C)cn2ncc(Cl)c12 [Example 170, (E)-1-(3-(4-(4-(3-chloro-4-methoxypyrazolo [1,5-a]pyridin-6-yl)-5-methyl-1H-pyrazol-1-yl)piperidine-1-carbonyl)-3-fluoroazetidin-1-yl)-4-(dimethylamino)but-2-en-1-one]"
0.00471,336,50,0.0804,888,5,"COc1cc(-c2cnn(C3CCN(C(=O)C4(OC)CN(C(=O)/C=C/CN(C)C)C4)CC3)c2C)cn2ncc(Cl)c12 [Example 171, (E)-1-(3-(4-(4-(3-chloro-4-methoxypyrazolo [1,5-a]pyridin-6-yl)-5-methyl-1H-pyrazol-1-yl)piperidine-1-carbonyl)-3-methoxyazetidin-1-yl)-4-(dimethylamino)but-2-en-1-one]"
0.00191,922,171,0.02599,3290,25,"C=CC(=O)N1CC(O)(C(=O)N2CCC(n3ncc(-c4cc(OC)c5c(Cl)cnn5c4)c3C)CC2)C1 [Example 172, 1-(3-(4-(4-(3-chloro-4-methoxypyrazolo [1,5-a]pyridin-6-yl)-5-methyl-1H-pyrazol-1-yl)piperidine-1-carbonyl)-3-hydroxyazetidin-1-yl)prop-2-en-1-one]"
0.00434,359,164,0.06559,1280,7,"COc1cc(-c2cnn(C3CCN(CC4(OC)CN(C(=O)/C=C/CN(C)C)C4)CC3)c2C)cn2ncc(Cl)c12 [Example 173, (E)-1-(3-((4-(4-(3-chloro-4-methoxypyrazolo [1,5-a]pyridin-6-yl)-5-methyl-1H-pyrazol-1-yl)piperidin-1-yl)methyl)-3-methoxyazetidin-1-yl)-4-(dimethylamino)but-2-en-1-one]"
0.01248,22,236,0.189,1600,1,"COc1cc(-c2cnn(C3CCN(C(=O)C4CN(C(=O)C#CCO)C4)CC3)c2)cn2ncc(C#N)c12 [Example 179, 6-(1-(1-(1-(4-hydroxybut-2-ynoyl)azetidine-3-carbonyl)piperidin-4-yl)-1H-pyrazol-4-yl)-4-methoxypyrazolo[1,5-a]pyridine-3-carbonitrile]"
0.04552,14,45,0.1329,130,2,"COc1cc(-c2cnn(C3CCN(C(=O)C4CN(C(=O)/C=C/CBr)C4)CC3)c2)cn2ncc(C#N)c12 [Example 180, (E)-6-(1-(1-(1-(4-bromobut-2-enoyl)azetidine-3-carbonyl)piperidin-4-yl)-1H-pyrazol-4-yl)-4-methoxypyrazolo[1,5-a]pyridine-3-carbonitrile]"
0.00249,32,34,0.02709,196,3,"COc1cc(-c2cnn(C3CCN(C(=O)C4CN(C(=O)/C=C/CCl)C4)CC3)c2)cn2ncc(C#N)c12 [Example 181, (E)-6-(1-(1-(1-(4-chlorobut-2-enoyl)azetidine-3-carbonyl)piperidin-4-yl)-1H-pyrazol-4-yl)-4-methoxypyrazolo[1,5-a]pyridine-3-carbonitrile]"
